# Test system: up to 32 different microorganisms
# Assay: in vitro antibacterial activity (MIC), agar dilution on Brain Heart Infusion (BHI) agar with Steers replicator
# Type: cell-based
# Conditions: unit assumed
# Method: Representative compounds of the present invention were assayed in vitro for antibacterial activity as follows: Twelve petri dishes containing successive aqueous dilutions of the test compound mixed with 10 mL of sterilized Brain Heart Infusion (BHI) agar (Difco 0148-01-5) were prepared. Each plate was inoculated with 1:100 (or 1:10 for slow-growing strains, such as Micrococcus and Streptococcus) dilutions of up to 32 different microorganisms, using a Steers replicator block. The inoculated plates were incubated at 35°-37° C. for 20 to 24 hours. In addition, a control plate, using BHI agar containing no test compound, was prepared and incubated at the beginning and end of each test.
# An additional plate containing a compound having known susceptibility patterns for the organisms being tested and belonging to the same antibiotic class as the test compound was also prepared and incubated as a further control, as well as to provide test-to-test comparability. Erythromycin A was used for this purpose.
# After incubation, each plate was visually inspected. The minimum inhibitory concentration (MIC) was defined as the lowest concentration of drug yielding no growth, a slight haze, or sparsely isolated colonies on the inoculum spot as compared to the growth control.
# [1] = Candida albicans CCH 442 (code TT)
# [2] = Enterococcus faecism ATCC 8043 (code II)
# [3] = Escherichia coli DC-2 (code SS)
# [4] = Escherichia coli JUHL (code QQ)
# [5] = Micrococcus luteus ATCC 4698 (code PP)
# [6] = Micrococcus luteus ATCC 9341 (code OO)
# [7] = Mycobacterium smegmatis ATCC 114 (code UU)
# [8] = Nocardia Asteroides ATCC9970 (code VV)
# [9] = Staphylococcus aureus 1775 (code GG)
# [10] = Staphylococcus aureus A5177 (code BB)
# [11] = Staphylococcus aureus A-5278 (code CC)
# [12] = Staphylococcus aureus ATCC 6538P (code AA)
# [13] = Staphylococcus aureus CMX 553 (code FF)
# [14] = Staphylococcus aureus CMX 642A (code DD)
# [15] = Staphylococcus aureus NCTC10649M (code EE)
# [16] = Staphylococcus epidermidis 3519 (code HH)
# [17] = Streptococcus agalactiae CMX 508 (code KK)
# [18] = Streptococcus bovis A-5169 (code JJ)
# [19] = Streptococcus pyogenes 930 (code MM)
# [20] = Streptococcus pyogenes EES61 (code LL)
# [21] = Streptococcus pyogenes PIU 2548 (code NN)
smiles,measurement,setting,value
"CC[C@H]1OC(=O)[C@H](C)C(=O)[C@H](C)[C@@H](O[C@@H]2O[C@H](C)C[C@H](N(C)C)[C@H]2O)[C@@](C)(OCCN)C[C@@H](C)C(=O)[C@H](C)[C@@H](O)[C@]1(C)O [Example 8, Compound of Formula (VIII): X is O, R is —CH2CH2NH2]",MIC,[1],> 100 µg/mL
same,MIC,[2],6.2 µg/mL
same,MIC,[3],> 100 µg/mL
same,MIC,[4],> 100 µg/mL
same,MIC,Escherichia coli SS (code RR),6.2 µg/mL
same,MIC,[5],12.5 µg/mL
same,MIC,[6],6.2 µg/mL
same,MIC,[7],> 100 µg/mL
same,MIC,[8],12.5 µg/mL
same,MIC,[9],> 100 µg/mL
same,MIC,[10],25 µg/mL
same,MIC,[11],> 100 µg/mL
same,MIC,[12],25 µg/mL
same,MIC,[13],50 µg/mL
same,MIC,[14],6.2 µg/mL
same,MIC,[15],6.2 µg/mL
same,MIC,[16],100 µg/mL
same,MIC,[17],6.2 µg/mL
same,MIC,[18],3.1 µg/mL
same,MIC,[19],> 100 µg/mL
same,MIC,[20],6.2 µg/mL
same,MIC,[21],12.5 µg/mL
"CC[C@H]1OC(=O)[C@H](C)C(=O)[C@H](C)[C@@H](O[C@@H]2O[C@H](C)C[C@H](N(C)C)[C@H]2O)[C@@](C)(OCC=O)C[C@@H](C)C(=O)[C@H](C)[C@H]2NC(=O)O[C@@]21C [Example 220, Compound of Formula (IX): L is CO, T is NH, R is —CH2C(O)H]",MIC,organism code AA,0.2 µg/mL
same,MIC,organism code BB,0.39 µg/mL
same,MIC,organism code CC,> 100 µg/mL
same,MIC,organism code DD,0.2 µg/mL
same,MIC,organism code EE,0.2 µg/mL
same,MIC,organism code FF,0.2 µg/mL
same,MIC,organism code GG,> 100 µg/mL
same,MIC,organism code HH,0.2 µg/mL
same,MIC,organism code II,0.05 µg/mL
same,MIC,organism code JJ,≤ 0.005 µg/mL
same,MIC,organism code KK,0.02 µg/mL
same,MIC,organism code LL,0.01 µg/mL
same,MIC,organism code MM,> 100 µg/mL
same,MIC,organism code NN,0.39 µg/mL
same,MIC,organism code OO,0.02 µg/mL
same,MIC,organism code PP,0.2 µg/mL
same,MIC,organism code QQ,12.5 µg/mL
same,MIC,organism code RR,0.1 µg/mL
same,MIC,organism code SS,12.5 µg/mL
same,MIC,organism code TT,> 100 µg/mL
same,MIC,organism code UU,3.1 µg/mL
same,MIC,organism code VV,0.2 µg/mL
same,MIC,organism code WW,2 µg/mL
same,MIC,organism code XX,0.03 µg/mL
same,MIC,organism code YY,0.06 µg/mL
same,MIC,organism code ZZ,> 128 µg/mL
same,MIC,organism code ZZA,2 µg/mL
"CCC1OC(=O)C(C)C(=O)C(C)C(OC2OC(C)CC(N(C)C)C2O)C(C)(OCC=Cc2cccnc2)CC(C)C(=O)C(C)C2NC(=O)OC12C (stereo not shown) [Example 185, R is —CH2CH═CH-(3-pyridyl)]",MIC,[1],> 100 µg/mL
same,MIC,[2],0.05 µg/mL
same,MIC,[3],100 µg/mL
same,MIC,[4],100 µg/mL
same,MIC,Escherichia coli SS (code RR),0.39 µg/mL
same,MIC,Haemophilis influenzae DILL AMP R (code WW),1 µg/mL
same,MIC,[5],0.1 µg/mL
same,MIC,[6],0.01 µg/mL
same,MIC,[7],3.1 µg/mL
same,MIC,[8],0.1 µg/mL
same,MIC,[9],> 100 µg/mL
same,MIC,[10],0.1 µg/mL
same,MIC,[11],> 100 µg/mL
same,MIC,[12],0.1 µg/mL
same,MIC,[13],0.1 µg/mL
same,MIC,[14],0.1 µg/mL
same,MIC,[15],0.1 µg/mL
same,MIC,[16],0.1 µg/mL
same,MIC,Streptococcus Pneumonia 5649 (code ZZA),0.5 µg/mL
same,MIC,Streptococcus Pneumonia 5979 (code ZZ),> 128 µg/mL
same,MIC,Streptococcus Pneumonia ATCC6303 (code XX),0.03 µg/mL
same,MIC,Streptococcus Pneumonia GYR 1171 (code YY),0.03 µg/mL
same,MIC,[17],0.01 µg/mL
same,MIC,[18],≤ 0.005 µg/mL
same,MIC,[19],> 100 µg/mL
same,MIC,[20],0.01 µg/mL
same,MIC,[21],0.2 µg/mL
"C=C(C#CCO[C@@]1(C)C[C@@H](C)C(=O)[C@H](C)[C@H]2NC(=O)O[C@]2(C)[C@@H](CC)OC(=O)[C@H](C)C(=O)[C@H](C)[C@H]1O[C@@H]1O[C@H](C)C[C@H](N(C)C)[C@H]1O)c1ccccc1 [Example 257, Compound of Formula (IX): L is CO, T is NH, R is —CH2—C≡C-(1-phenylethenyl)]",MIC,organism code AA,0.2 µg/mL
same,MIC,organism code BB,0.2 µg/mL
same,MIC,organism code CC,> 100 µg/mL
same,MIC,organism code DD,0.2 µg/mL
same,MIC,organism code EE,0.2 µg/mL
same,MIC,organism code FF,0.2 µg/mL
same,MIC,organism code GG,> 100 µg/mL
same,MIC,organism code HH,0.2 µg/mL
same,MIC,organism code II,0.1 µg/mL
same,MIC,organism code JJ,0.01 µg/mL
same,MIC,organism code KK,0.05 µg/mL
same,MIC,organism code LL,0.01 µg/mL
same,MIC,organism code MM,100 µg/mL
same,MIC,organism code NN,0.2 µg/mL
same,MIC,organism code OO,0.05 µg/mL
same,MIC,organism code PP,0.2 µg/mL
same,MIC,organism code QQ,> 100 µg/mL
same,MIC,organism code RR,0.78 µg/mL
same,MIC,organism code SS,> 100 µg/mL
same,MIC,organism code TT,> 100 µg/mL
same,MIC,organism code UU,0.39 µg/mL
same,MIC,organism code VV,0.2 µg/mL
same,MIC,organism code WW,8 µg/mL
same,MIC,organism code XX,0.125 µg/mL
same,MIC,organism code YY,0.125 µg/mL
same,MIC,organism code ZZ,128 µg/mL
same,MIC,organism code ZZA,0.5 µg/mL

# — patent publication USRE39591E1, “6-O-substituted ketolides having antibacterial activity” (Abbott Laboratories, priority 1996, dated 2007)
